# Laboratory results taken from patent US20250312499A1, “KISSPEPTIN RECEPTOR (KISS1R) TARGETED THERAPEUTICS AND USES THEREOF” (priority 2024, published 2025).
# Numbered stars: 1 amine (or outer) side, 2 acyl side, 3 side chain; on linkers, the order of the positions; unused ones are H or OH. Square brackets hold non-standard residues; d marks the D form. Side chains are listed from the residue outwards. Peptide text beside a SMILES is read from it. * marks the point of attachment. DOTA(Lu) = O=C1CN2CCN3CCN(CC(=O)*)CCN(CC2)CC(=O)[O][Lu]([O]1)[O]C(=O)C3; DOTA = O=C(O)CN1CCN(CC(=O)O)CCN(CC(=O)*)CCN(CC(=O)O)CC1; Ala(9-anthryl) = N[C@@H](Cc1c2ccccc2cc2ccccc12)C(=O)O; Gly(N-(3-F-4-Me-benzyl)) = Cc1ccc(CNCC(=O)*)cc1F; Api(1-amidino) = N=C(N)N1CCC(N)(C(=O)O)CC1; Phe(4-I) = N[C@@H](Cc1ccc(I)cc1)C(=O)O; γGlu = O=C(O)[C@H](CCC(=O)[*:2])N[*:1]; 2Nal = N[C@@H](Cc1ccc2ccccc2c1)C(=O)O; Palmitoyl = CCCCCCCCCCCCCCCC(=O)*; Trx = NC[C@H]1CC[C@H](C(=O)O)CC1; dCya = N[C@H](CS(=O)(=O)O)C(=O)O; 4Pal = N[C@@H](Cc1ccncc1)C(=O)O; PEG4 = NCCOCCOCCOCCOCCC(=O)O; 4Amb = NCc1ccc(C(=O)O)cc1; Nle = CCCC[C@H](N)C(=O)O; Api = NC1(C(=O)O)CCNCC1; Ahx = NCCCCCC(=O)O; azaGly = NNC(=O)O
# Target: human kisspeptin receptor (Homo sapiens (Human), UniProt Q969F8)
# Test: Human KISS1R binding assay (membrane competition binding)
# Conditions: not given
# Outline: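 Membranes from tetracycline-induced (48 h) Flp-In T-Rex 293 cells expressing receptor, 5–10 μg, incubated 90 min at room temperature with 0.2 nM [125I]-metastin (45-54) and competitor (typically 0–10,000 nM) in Tris/Mg/Ca/EGTA/0.1% BSA, pH 7.4. Filtration, washing, counting; Ki by non-linear regression.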
# human kisspeptin receptor, sequence (Q969F8 whole entry): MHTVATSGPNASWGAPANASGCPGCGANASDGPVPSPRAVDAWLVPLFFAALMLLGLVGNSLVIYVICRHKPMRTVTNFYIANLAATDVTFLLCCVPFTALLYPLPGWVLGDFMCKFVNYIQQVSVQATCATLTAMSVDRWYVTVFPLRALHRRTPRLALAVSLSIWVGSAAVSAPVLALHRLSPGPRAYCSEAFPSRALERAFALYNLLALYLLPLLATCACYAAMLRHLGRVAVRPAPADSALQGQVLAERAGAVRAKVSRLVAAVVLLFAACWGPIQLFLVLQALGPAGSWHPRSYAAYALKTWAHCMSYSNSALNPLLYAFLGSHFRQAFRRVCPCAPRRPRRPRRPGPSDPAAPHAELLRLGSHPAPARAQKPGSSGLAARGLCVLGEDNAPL
row,Structure (SMILES),Ki [nM]
1,Cc1ccc(CNCC(=O)N2CCC(NC(=O)[C@H](CC(C)C)NC(=O)NNC(=O)[C@H](Cc3ccccc3)NC(=O)[C@@H](NC(=O)[C@H](CC(N)=O)NC(=O)[C@H](Cc3ccc4ccccc4c3)NC(=O)[C@@H](Cc3ccc(O)cc3)NC(=O)CCCCCNC(=O)CN3CCN4CCN5CCN(CC3)CC(=O)[O][Lu]([O]C(=O)C4)[O]C(=O)C5)[C@@H](C)O)(C(=O)N[C@@H](Cc3c[nH]c4ccccc34)C(N)=O)CC2)cc1F [Compound 118-Lu] ({DOTA(Lu)-Ahx}-[dY][2Nal]NTF[azaGly]L[Api](Gly(N-(3-F-4-Me-benzyl)))W-NH2),< 10

# Same assay, conditions: 90 min at room temperature; competition with 0.2 nM [125I]-metastin (45-54); Flp-In T-Rex 293 kisspeptin membranes; metal complexes nonradioactive Ga, In, Lu; read-out: hKiSSR Binding Ki (90 min)
row,Ki [nM],Structure (SMILES)
1,< 10,Cc1ccc(CNCC(=O)N2CCC(NC(=O)[C@H](CC(C)C)NC(=O)NNC(=O)[C@H](Cc3ccccc3)NC(=O)c3ccc(CNC(=O)CN4CCN(CC(=O)O)CCN(CC(=O)O)CCN(CC(=O)O)CC4)cc3)(C(=O)N[C@@H](Cc3c[nH]c4ccccc34)C(N)=O)CC2)cc1F [Compound 109] ({DOTA-4Amb}-F[azaGly]L[Api](Gly(N-(3-F-4-Me-benzyl)))W-NH2)
2,< 10,Cc1ccc(CNCC(=O)N2CCC(NC(=O)[C@H](CC(C)C)NC(=O)NNC(=O)[C@H](Cc3ccccc3)NC(=O)[C@H]3CC[C@H](CNC(=O)c4ccc(CNC(=O)CN5CCN(CC(=O)O)CCN(CC(=O)O)CCN(CC(=O)O)CC5)cc4)CC3)(C(=O)N[C@@H](Cc3c[nH]c4ccccc34)C(N)=O)CC2)cc1F [Compound 110] ({DOTA-4Amb-Trx}-F[azaGly]L[Api](Gly(N-(3-F-4-Me-benzyl)))W-NH2)
3,< 10,Cc1ccc(CNCC(=O)N2CCC(NC(=O)[C@H](CC(C)C)NC(=O)NNC(=O)[C@H](Cc3ccccc3)NC(=O)[C@H](C)NC(=O)[C@H](CC(N)=O)NC(=O)[C@@H](Cc3c[nH]c4ccccc34)NC(=O)[C@@H](Cc3ccc(O)cc3)NC(=O)CCCCCNC(=O)CN3CCN(CC(=O)O)CCN(CC(=O)O)CCN(CC(=O)O)CC3)(C(=O)N[C@@H](CC(C)C)C(N)=O)CC2)cc1F [Compound 113] ({DOTA-Ahx}-[dY][dW]NAF[azaGly]L[Api](Gly(N-(3-F-4-Me-benzyl)))L-NH2)
4,< 10,Cc1ccc(CNCC(=O)N2CCC(NC(=O)[C@H](CC(C)C)NC(=O)NNC(=O)[C@H](Cc3ccccc3)NC(=O)[C@@H](NC(=O)[C@H](CC(N)=O)NC(=O)[C@@H](Cc3c[nH]c4ccccc34)NC(=O)[C@@H](Cc3ccc(O)cc3)NC(=O)CCCCCNC(=O)[C@@H](CS(=O)(=O)O)NC(=O)[C@@H](CS(=O)(=O)O)NC(=O)[C@@H](CS(=O)(=O)O)NC(=O)CN3CCN(CC(=O)O)CCN(CC(=O)O)CCN(CC(=O)O)CC3)[C@@H](C)O)(C(=O)N[C@@H](Cc3c[nH]c4ccccc34)C(N)=O)CC2)cc1F [Compound 114] ({DOTA}-[dCya][dCya][dCya][Ahx][dY][dW]NTF[azaGly]L[Api](Gly(N-(3-F-4-Me-benzyl)))W-NH2)
5,< 10,Cc1ccc(CNCC(=O)N2CCC(NC(=O)[C@H](CC(C)C)NC(=O)NNC(=O)[C@H](Cc3ccccc3)NC(=O)[C@@H](NC(=O)[C@H](CC(N)=O)NC(=O)[C@@H](Cc3c[nH]c4ccccc34)NC(=O)[C@@H](Cc3ccc(O)cc3)NC(=O)CCCCCNC(=O)[C@@H](CS(=O)(=O)O)NC(=O)CN3CCN(CC(=O)O)CCN(CC(=O)O)CCN(CC(=O)O)CC3)[C@@H](C)O)(C(=O)N[C@@H](Cc3c[nH]c4ccccc34)C(N)=O)CC2)cc1F [Compound 115] ({DOTA}-[dCya][Ahx][dY][dW]NTF[azaGly]L[Api](Gly(N-(3-F-4-Me-benzyl)))W-NH2)
6,< 10,Cc1ccc(CNCC(=O)N2CCC(NC(=O)[C@H](CC(C)C)NC(=O)NNC(=O)[C@H](Cc3ccccc3)NC(=O)CCCCCNC(=O)[C@@H](CS(=O)(=O)O)NC(=O)CN3CCN(CC(=O)O)CCN(CC(=O)O)CCN(CC(=O)O)CC3)(C(=O)N[C@@H](Cc3c[nH]c4ccccc34)C(N)=O)CC2)cc1F [Compound 116] ({DOTA}-[dCya][Ahx]F[azaGly]L[Api](Gly(N-(3-F-4-Me-benzyl)))W-NH2)
7,< 10,Cc1ccc(CNCC(=O)N2CCC(NC(=O)[C@H](CC(C)C)NC(=O)NNC(=O)[C@H](Cc3ccccc3)NC(=O)[C@@H](NC(=O)[C@H](CC(N)=O)NC(=O)[C@H](Cc3ccc4ccccc4c3)NC(=O)[C@@H](Cc3ccc(O)cc3)NC(=O)CCCCCNC(=O)CN3CCN(CC(=O)O)CCN(CC(=O)O)CCN(CC(=O)O)CC3)[C@@H](C)O)(C(=O)N[C@@H](Cc3c[nH]c4ccccc34)C(N)=O)CC2)cc1F [Compound 118] ({DOTA-Ahx}-[dY][2Nal]NTF[azaGly]L[Api](Gly(N-(3-F-4-Me-benzyl)))W-NH2)
8,< 10,CCCCCCCCCCCCCCCC(=O)N[C@@H](CCC(=O)N[C@@H](CCCCNC(=O)CCOCCOCCOCCOCCNC(=O)CN1CCN(CC(=O)O)CCN(CC(=O)O)CCN(CC(=O)O)CC1)C(=O)N[C@H](Cc1ccc(O)cc1)C(=O)N[C@H](Cc1c[nH]c2ccccc12)C(=O)N[C@@H](CC(N)=O)C(=O)N[C@H](C(=O)N[C@@H](Cc1ccccc1)C(=O)NNC(=O)N[C@@H](CC(C)C)C(=O)NC1(C(=O)N[C@@H](Cc2c[nH]c3ccccc23)C(N)=O)CCN(C(=O)CNCc2ccc(C)c(F)c2)CC1)[C@@H](C)O)C(=O)O [Compound 119] ({Palmitoyl-γGlu}-K([PEG4-DOTA])[dY][dW]NTF[azaGly]L[Api](Gly(N-(3-F-4-Me-benzyl)))W-NH2)
9,< 10,Cc1ccc(CNCC(=O)N2CCC(NC(=O)[C@H](CC(C)C)NC(=O)NNC(=O)[C@H](Cc3ccccc3)NC(=O)[C@@H](NC(=O)[C@H](CC(N)=O)NC(=O)[C@@H](Cc3c[nH]c4ccccc34)NC(=O)[C@@H](Cc3ccc(O)cc3)NC(=O)CCCCCNC(=O)[C@@H](CS(=O)(=O)O)NC(=O)[C@@H](CS(=O)(=O)O)NC(=O)CN3CCN(CC(=O)O)CCN(CC(=O)O)CCN(CC(=O)O)CC3)[C@@H](C)O)(C(=O)N[C@@H](Cc3c[nH]c4ccccc34)C(N)=O)CC2)cc1F [Compound 120] ({DOTA}-[dCya][dCya][Ahx][dY][dW]NTF[azaGly]L[Api](Gly(N-(3-F-4-Me-benzyl)))W-NH2)
10,10 to 100,CC(C)C[C@H](NC(=O)NNC(=O)[C@H](Cc1ccc(I)cc1)NC(=O)[C@@H](NC(=O)[C@H](CC(N)=O)NC(=O)[C@H](Cc1ccc(I)cc1)NC(=O)[C@@H](Cc1ccc(O)cc1)NC(=O)CN1CCN(CC(=O)O)CCN(CC(=O)O)CCN(CC(=O)O)CC1)[C@@H](C)O)C(=O)NC1(C(=O)N[C@@H](Cc2ccncc2)C(N)=O)CCN(C(=N)N)CC1 [Compound 121] ({DOTA}-[dY][Phe(4-I)]NT[Phe(4-I)][azaGly]L[Api(1-amidino)][4Pal]-NH2)
11,> 100,CCCC[C@H](NC(=O)NNC(=O)[C@H](Cc1ccccc1)NC(=O)[C@@H](NC(=O)[C@H](CC(N)=O)NC(=O)[C@H](Cc1c2ccccc2cc2ccccc12)NC(=O)[C@@H](Cc1ccc(O)cc1)NC(=O)CN1CCN(CC(=O)O)CCN(CC(=O)O)CCN(CC(=O)O)CC1)[C@@H](C)O)C(=O)NC1(C(=O)N[C@@H](Cc2ccncc2)C(N)=O)CCN(C(=N)N)CC1 [Compound 123] ({DOTA}-[dY][Ala(9-anthryl)]NTF[azaGly][Nle][Api(1-amidino)][4Pal]-NH2)
12,< 10,Cc1ccc(CNCC(=O)N2CCC(NC(=O)[C@H](CC(C)C)NC(=O)NNC(=O)[C@H](Cc3ccccc3)NC(=O)CCCCCNC(=O)[C@@H](CS(=O)(=O)O)NC(=O)[C@@H](CS(=O)(=O)O)NC(=O)CN3CCN(CC(=O)O)CCN(CC(=O)O)CCN(CC(=O)O)CC3)(C(=O)N[C@@H](Cc3c[nH]c4ccccc34)C(N)=O)CC2)cc1F [Compound 130] ({DOTA}-[dCya][dCya][Ahx]F[azaGly]L[Api](Gly(N-(3-F-4-Me-benzyl)))W-NH2)
13,< 10,Cc1ccc(CNCC(=O)N2CCC(NC(=O)[C@H](CC(C)C)NC(=O)NNC(=O)[C@H](Cc3ccccc3)NC(=O)CCCCCNC(=O)[C@@H](CS(=O)(=O)O)NC(=O)[C@@H](CS(=O)(=O)O)NC(=O)[C@@H](CS(=O)(=O)O)NC(=O)CN3CCN(CC(=O)O)CCN(CC(=O)O)CCN(CC(=O)O)CC3)(C(=O)N[C@@H](Cc3c[nH]c4ccccc34)C(N)=O)CC2)cc1F [Compound 131] ({DOTA}-[dCya][dCya][dCya][Ahx]F[azaGly]L[Api](Gly(N-(3-F-4-Me-benzyl)))W-NH2)
14,10 to 100,Cc1ccc(CNCC(=O)N2CCC(NC(=O)c3cccc(OCCNC(=O)[C@H](Cc4ccccc4)NC(=O)CCCCCNC(=O)CN4CCN(CC(=O)O)CCN(CC(=O)O)CCN(CC(=O)O)CC4)c3)(C(=O)N[C@@H](Cc3c[nH]c4ccccc34)C(N)=O)CC2)cc1F [Compound 134]
15,> 100,Cc1ccc(CNCC(=O)N2CCC(NC(=O)c3cccc(CNC(=O)[C@H](Cc4ccccc4)NC(=O)CCCCCNC(=O)CN4CCN(CC(=O)O)CCN(CC(=O)O)CCN(CC(=O)O)CC4)n3)(C(=O)N[C@@H](Cc3c[nH]c4ccccc34)C(N)=O)CC2)cc1F [Compound 135]
16,> 100,Cc1ccc(CNCC(=O)N2CCC(NC(=O)c3ccnc(CNC(=O)[C@H](Cc4ccccc4)NC(=O)CCCCCNC(=O)CN4CCN(CC(=O)O)CCN(CC(=O)O)CCN(CC(=O)O)CC4)c3)(C(=O)N[C@@H](Cc3c[nH]c4ccccc34)C(N)=O)CC2)cc1F [Compound 136]
17,< 10,Cc1ccc(CNCC(=O)N2CCC(NC(=O)[C@@H](CC(C)C)SCCNC(=O)[C@H](Cc3ccccc3)NC(=O)CCCCCNC(=O)CN3CCN(CC(=O)O)CCN(CC(=O)O)CCN(CC(=O)O)CC3)(C(=O)N[C@@H](Cc3c[nH]c4ccccc34)C(N)=O)CC2)cc1F [Compound 137]
18,10 to 100,Cc1ccc(CNCC(=O)N2CCC(NC(=O)[C@H](CC(C)C)SC(C)(C)CNC(=O)[C@H](Cc3ccccc3)NC(=O)CCCCCNC(=O)CN3CCN(CC(=O)O)CCN(CC(=O)O)CCN(CC(=O)O)CC3)(C(=O)N[C@@H](Cc3c[nH]c4ccccc34)C(N)=O)CC2)cc1F [Compound 138]
19,10 to 100,Cc1ccc(CNCC(=O)N2CCC(NC(=O)[C@H](CC(C)C)N3CC(NC(=O)[C@H](Cc4ccccc4)NC(=O)CCCCCNC(=O)CN4CCN(CC(=O)O)CCN(CC(=O)O)CCN(CC(=O)O)CC4)C3)(C(=O)N[C@@H](Cc3c[nH]c4ccccc34)C(N)=O)CC2)cc1F [Compound 139]
